Laboratory results published in ChEMBL document CHEMBL1124230, “Synthesis and anti-HIV activity of different sugar-modified pyrimidine and purine nucleosides” (1988).
pEC50: −log10 of the molar value.

How the values were obtained:
MT4 [1] = assay: Ratio of CD50 to ED50 rvaluated for inhibition of HIV replication in MT-4 cells; type: functional
MT4 [2] = assay: Cytotoxic dose required to reduce the viability of normal uninfected MT-4 cells.; type: functional; details: Homo sapiens, read-out: CD50 (the source's name)
[3] = tested on: Human immunodeficiency virus 1; assay: Dose required to inhibit cytopathic effect of human immunodeficiency virus replication in MT-4 cells.; type: functional; details: Human immunodeficiency virus 1, MT4; read-out: ED50 (the source's name)
[4] = Ratio of CD50 to ED50 evaluated for inhibition of HIV replication in MT-4 cells; type: functional, MT4

`O=c1ccn([C@H]2C[C@H](F)[C@@H](CO)O2)c(=O)[nH]1` gave a Selectivity index (MT4 [1]) of 400, a CC50 (MT4 [2]) of 16 µM and a pEC50 [3] of 7.40.
`Nc1nc(O)c2ncn([C@H]3C[C@H](O)[C@@H](CO)O3)c2n1` [DEOXYGUANOSINE] gave a CC50 (MT4 [2]) greater than 500 µM, a Selectivity index [4] of 3.1 and a pEC50 [3] of 3.80.
In the case of `CC1=CN(C2CC(N=[N+]=[N-])C(CO)O2)CN=C1NO` (stereo not given), the Selectivity index (MT4 [1]) was 61, the CC50 (MT4 [2]) was 92 µM and the pEC50 [3] was 5.82.
In the case of `C#CC1C(CO)OC(n2cc(C)c(=O)[nH]c2=O)C1O` (stereo not given), the CC50 (MT4 [2]) was greater than 500 µM and the pEC50 [3] was less than 3.30.
`Nc1ncnc2c1ncn2[C@@H]1O[C@H](CO)C[C@H]1O` [CORDYCEPIN] gave a Selectivity index (MT4 [1]) of less than 0.5, a CC50 (MT4 [2]) of 45 µM and a pEC50 [3] of less than 4.30.
Compound `Nc1nc(N)c2ncn(C3CC(F)C(CO)O3)c2n1` (stereo not given) has a Selectivity index (MT4 [1]) of 80, a CC50 (MT4 [2]) of 360 µM and a pEC50 [3] of 5.35.
`[N-]=[N+]=N[C@H]1C[C@H](n2ccc(N)nc2=O)O[C@@H]1CO` gave a Selectivity index (MT4 [1]) of 11, a CC50 (MT4 [2]) of 34.1 µM and a pEC50 [3] of 5.51.
In the case of `[N-]=[N+]=N[C@H]1C[C@H](n2ccc(=O)[nH]c2=O)O[C@@H]1CO` [NAVURIDINE], the Selectivity index (MT4 [1]) was 677, the CC50 (MT4 [2]) was 244 µM and the pEC50 [3] was 6.44.
Compound `Cc1cn([C@H]2C[C@H](N=[N+]=[N-])[C@@H](CO)O2)c(=O)nc1N` has a Selectivity index (MT4 [1]) of 555, a CC50 (MT4 [2]) greater than 1000 µM and a pEC50 [3] of 5.74.
With `Nc1nc(O)c2ncn(C3C=CC(CO)O3)c2n1` (stereo not given) the CC50 (MT4 [2]) was 11 µM, the Selectivity index [4] was greater than 2.2 and the pEC50 [3] was less than 5.30.
Work on `Cc1cn([C@H]2C[C@H](N=[N+]=[N-])[C@@H](CO)O2)c(=O)[nH]c1=O` [ZIDOVUDINE] yielded a Selectivity index (MT4 [1]) of 5000, a CC50 (MT4 [2]) of 20 µM and a pEC50 [3] of 8.40.
In the case of `Nc1ncnc2c1ncn2[C@H]1C[C@H](O)[C@@H](CO)O1` [DEOXYADENOSINE], the CC50 (MT4 [2]) was greater than 100 µM and the pEC50 [3] was less than 4.00.
In the case of `Nc1nc(O)c2ncn(C3CC(F)C(CO)O3)c2n1` (stereo not given), the CC50 (MT4 [2]) was 237 µM, the Selectivity index [4] was 96 and the pEC50 [3] was 5.62.
`Nc1ncnc2c1ncn2[C@@H]1O[C@H](CO)C[C@@H]1O` showed a CC50 (MT4 [2]) greater than 500 µM and a pEC50 [3] of less than 3.30.
`CC(=O)SC1CC(n2cc(C)c(=O)[nH]c2=O)OC1CO` (stereo not given) gave a Selectivity index (MT4 [1]) of 1.1, a CC50 (MT4 [2]) of 29 µM and a pEC50 [3] of 4.57.
Compound `Nc1nc(N)c2ncn([C@H]3C[C@H](O)[C@@H](CO)O3)c2n1` has a CC50 (MT4 [2]) greater than 625 µM and a pEC50 [3] of less than 3.90.
In the case of `Cc1cn(C2OC(CO)C(C#N)C2O)c(=O)[nH]c1=O` (stereo not given), the pEC50 [3] was less than 3.30.
`Cc1cn([C@H]2C[C@H](F)[C@@H](CO)O2)c(=O)[nH]c1=O` [ALOVUDINE] showed a Selectivity index (MT4 [1]) of 197, a CC50 (MT4 [2]) of 0.197 µM and a pEC50 [3] of 9.00.
Compound `Nc1ncnc2c1ncn2C1OC(CO)CC1Cl` (stereo not given) has a CC50 (MT4 [2]) greater than 500 µM and a pEC50 [3] of less than 3.30.
`Nc1ncnc2c1ncn2[C@@H]1O[C@H](CO)[C@H]2O[C@H]21` gave a CC50 (MT4 [2]) greater than 500 µM and a pEC50 [3] of less than 3.30.
In the case of `Nc1ncnc2c1ncn2C1OC(CO)CC1Br` (stereo not given), the CC50 (MT4 [2]) was greater than 500 µM and the pEC50 [3] was less than 3.30.
`Nc1ncnc2c1ncn2[C@@H]1O[C@H](CO)[C@@H]2O[C@@H]21` showed a CC50 (MT4 [2]) greater than 100 µM and a pEC50 [3] of less than 4.00.
With `Cc1cn([C@H]2C[C@H](SS[C@H]3C[C@H](n4cc(C)c(O)nc4=O)O[C@@H]3CO)[C@@H](CO)O2)c(=O)nc1O` the Selectivity index (MT4 [1]) was 2.1, the CC50 (MT4 [2]) was 34 µM and the pEC50 [3] was 4.80.
`Cc1cn([C@H]2C[C@H](OC(=S)Oc3ccccc3)[C@@H](CO)O2)c(=O)[nH]c1=O` gave a CC50 (MT4 [2]) greater than 250 µM and a pEC50 [3] of less than 3.60.
For `CNc1nc(=O)n(C2CC(N=[N+]=[N-])C(CO)O2)cc1C` (stereo not given), the Selectivity index (MT4 [1]) was greater than 58, the CC50 (MT4 [2]) was greater than 1000 µM and the pEC50 [3] was 4.76.
Work on `Cc1ccc(SC2CC(n3cc(C)c(=O)[nH]c3=O)OC2CO)cc1` (stereo not given) yielded a Selectivity index (MT4 [1]) of less than 1.2, a CC50 (MT4 [2]) of 116 µM and a pEC50 [3] of less than 4.00.
For `CNc1ccn(C2CC(N=[N+]=[N-])C(CO)O2)c(=O)n1` (stereo not given), the Selectivity index (MT4 [1]) was greater than 1.6, the CC50 (MT4 [2]) was greater than 1000 µM and the pEC50 [3] was 3.22.
